This passage reports EC50 results from patent publication US10730874B2 (Shire Human Genetic Therapies, Inc., priority 2018, dated 2020).

A word on the EC50: it is the concentration needed to bring the measured effect to its halfway point.

This assay deals with human activated kallikrein enzyme (plasma kallikrein) (Homo sapiens (Human), UniProt P03952). The assay is described as follows: Inhibition of human activated plasma kallikrein, fluorogenic peptide substrate assay, 500 pM enzyme format. As to conditions: 500 pM activated kallikrein enzyme, 300 uM Pro-Phe-Arg-7-amido-4-methylcoumarin substrate, 30 min preincubation, 10 min at RT; read-out: Primary Dose Response Assay: Average EC50. The class given is biochemical. An outline of the steps: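 Buffer 20 mM Tris pH 7.5, EDTA, NaCl, PEG-400, Triton X-100; 300 uM Pro-Phe-Arg-AMC; enzyme–inhibitor preincubation 30 min RT. Format one: 500 pM kallikrein, 10 min RT reaction; format two: 5 pM kallikrein, 18 h RT reaction. Fluorescence read at 460 nm (380 nm excitation).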
Sequence of human activated kallikrein enzyme (plasma kallikrein) (P03952 391-638): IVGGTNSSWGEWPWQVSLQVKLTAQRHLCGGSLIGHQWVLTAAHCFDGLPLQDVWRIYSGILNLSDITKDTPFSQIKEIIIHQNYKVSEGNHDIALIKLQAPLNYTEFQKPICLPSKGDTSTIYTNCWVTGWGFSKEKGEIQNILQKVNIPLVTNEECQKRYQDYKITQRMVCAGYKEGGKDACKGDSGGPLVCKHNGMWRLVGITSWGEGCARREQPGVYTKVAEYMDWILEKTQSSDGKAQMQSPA
Sequence of human activated kallikrein enzyme (plasma kallikrein) (P03952 20-390 partner): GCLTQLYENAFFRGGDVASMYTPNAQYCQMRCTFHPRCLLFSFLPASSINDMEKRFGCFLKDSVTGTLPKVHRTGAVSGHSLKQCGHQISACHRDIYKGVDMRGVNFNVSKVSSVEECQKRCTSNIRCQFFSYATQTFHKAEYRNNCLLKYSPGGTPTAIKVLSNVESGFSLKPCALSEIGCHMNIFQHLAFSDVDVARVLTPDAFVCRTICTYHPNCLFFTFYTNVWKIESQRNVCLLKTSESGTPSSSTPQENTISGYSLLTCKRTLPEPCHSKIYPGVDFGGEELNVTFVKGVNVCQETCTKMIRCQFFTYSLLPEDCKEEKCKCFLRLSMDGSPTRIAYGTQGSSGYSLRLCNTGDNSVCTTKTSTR
Turning to `O=C(NCc1ncn2ccc(Cl)cc12)c1cn(Cc2cn3cc(C4CC4)cc(C4(O)COC4)c3n2)nn1` [Example I-153, N-((7-chloroimidazo[1,5-a]pyridin-1-yl)methyl)-1-((6-cyclopropyl-8-(3-hydroxyoxetan-3-yl)imidazo[1,2-a]pyridin-2-yl)methyl)-1H-1,2,3-triazole-4-carboxamide], the EC50 was below 1 nM.
Then `N#Cc1cc(C2CC2)cn2cc(Cc3nnc(C(=O)NCc4ncn5ccc(Br)c(F)c45)o3)nc12` [Example I-154, N-((7-bromo-8-fluoroimidazo[1,5-a]pyridin-1-yl)methyl)-5-((8-cyano-6-cyclopropylimidazo[1,2-a]pyridin-2-yl)methyl)-1,3,4-oxadiazole-2-carboxamide], with below 1 nM; and `O=C(NCc1ncn2ccc(Cl)cc12)c1cnn(Cc2cn3cc(C4CC4)cc(Cc4nnco4)c3n2)c1` [Example I-155, 1-((8-((1,3,4-oxadiazol-2-yl)methyl)-6-cyclopropylimidazo[1,2-a]pyridin-2-yl)methyl)-N-((7-chloroimidazo[1,5-a]pyridin-1-yl)methyl)-1H-pyrazole-4-carboxamide], with below 1 nM.
Then `O=C(NCc1ncn2ccc(Cl)c(F)c12)c1nnc(Cc2cn3nc(C4CC4)ccc3n2)o1` [Example I-156, N-((7-chloro-8-fluoroimidazo[1,5-a]pyridin-1-yl)methyl)-5-((6-cyclopropylimidazo[1,2-b]pyridazin-2-yl)methyl)-1,3,4-oxadiazole-2-carboxamide], with below 1 nM.
Then `CCOC(=O)Cc1cc(C2CC2)cn2cc(Cn3cc(C(=O)NCc4ncn5ccc(Cl)c(F)c45)nn3)nc12` [Example I-157a, ethyl 2-(2-((4-(((7-chloro-8-fluoroimidazo[1,5-a]pyridin-1-yl)methyl)carbamoyl)-1H-1,2,3-triazol-1-yl)methyl)-6-cyclopropylimidazo[1,2-a]pyridin-8-yl)acetate], with below 1 nM; and `O=C(O)Cc1cc(C2CC2)cn2cc(Cn3cc(C(=O)NCc4ncn5ccc(Cl)c(F)c45)nn3)nc12` [Example I-157b, 2-(2-((4-(((7-chloro-8-fluoroimidazo[1,5-a]pyridin-1-yl)methyl)carbamoyl)-1H-1,2,3-triazol-1-yl)methyl)-6-cyclopropylimidazo[1,2-a]pyridin-8-yl)acetic acid], with below 1 nM.
Consider `N#Cc1cc(C2CC2)cn2cc(Cc3nnc(C(=O)NCc4ncn5ccc(Cl)c(F)c45)o3)nc12` [Example I-158, N-((7-chloro-8-fluoroimidazo[1,5-a]pyridin-1-yl)methyl)-5-((8-cyano-6-cyclopropylimidazo[1,2-a]pyridin-2-yl)methyl)-1,3,4-oxadiazole-2-carboxamide], for which the EC50 is below 1 nM.
For the compound `CS(=O)(=O)c1cc(C2CC2)cn2cc(Cn3cc(C(=O)NCc4ncn5ccc(Cl)cc45)cn3)nc12` [Example I-159, N-((7-chloroimidazo[1,5-a]pyridin-1-yl)methyl)-1-((6-cyclopropyl-8-(methylsulfonyl)imidazo[1,2-a]pyridin-2-yl)methyl)-1H-pyrazole-4-carboxamide], the half-maximal effective concentration (EC50) is below 1 nM.
Then `Cn1nc(C(=O)NCc2ncn3ccc(Cl)cc23)nc1Cc1cn2cc(C3CC3)ccc2n1` [Example I-160, N-((7-chloroimidazo[1,5-a]pyridin-1-yl)methyl)-5-((6-cyclopropylimidazo[1,2-a]pyridin-2-yl)methyl)-1-methyl-1H-1,2,4-triazole-3-carboxamide], with 1 to 10 nM.
Then `O=C(NCc1ncn2ccc(Cl)cc12)c1nnc(Cc2cn3cc(C4CC4)ccc3n2)[nH]1` [Example I-161, N-((7-chloroimidazo[1,5-a]pyridin-1-yl)methyl)-5-((6-cyclopropylimidazo[1,2-a]pyridin-2-yl)methyl)-4H-1,2,4-triazole-3-carboxamide], with 1 to 10 nM; and `CCOC(=O)C(C)(C)Cc1cc(C2CC2)cn2cc(Cn3cc(C(=O)NCc4ncn5ccc(Cl)cc45)cn3)nc12` [Example I-162, ethyl 3-(2-((4-(((7-chloroimidazo[1,5-a]pyridin-1-yl)methyl)carbamoyl)-1H-pyrazol-1-yl)methyl)-6-cyclopropylimidazo[1,2-a]pyridin-8-yl)-2,2-dimethylpropanoate], with below 1 nM; and `CCOC(=O)CCc1cc(C2CC2)cn2cc(Cn3cc(C(=O)NCc4ncn5ccc(Cl)c(F)c45)nn3)nc12` [Example I-163a, ethyl 3-(2-((4-(((7-chloro-8-fluoroimidazo[1,5-a]pyridin-1-yl)methyl)carbamoyl)-1H-1,2,3-triazol-1-yl)methyl)-6-cyclopropylimidazo[1,2-a]pyridin-8-yl)propanoate], with below 1 nM.
Then `O=C(O)CCc1cc(C2CC2)cn2cc(Cn3cc(C(=O)NCc4ncn5ccc(Cl)c(F)c45)nn3)nc12` [Example I-163b, 3-(2-((4-(((7-chloro-8-fluoroimidazo[1,5-a]pyridin-1-yl)methyl)carbamoyl)-1H-1,2,3-triazol-1-yl)methyl)-6-cyclopropylimidazo[1,2-a]pyridin-8-yl)propanoic acid], with below 1 nM; and `O=C(NCc1ncn2ccc(Cl)c(F)c12)c1cn(Cc2cn3cc(C4CC4)cnc3n2)nn1` [Example I-165, N-((7-chloro-8-fluoroimidazo[1,5-a]pyridin-1-yl)methyl)-1-((6-cyclopropylimidazo[1,2-a]pyrimidin-2-yl)methyl)-1H-1,2,3-triazole-4-carboxamide], with below 1 nM; and `CCOC(=O)c1cc(C2CC2)cn2cc(Cn3cc(C(=O)NCc4ncn5ccc(Cl)c(F)c45)nn3)nc12` [Example I-166a, ethyl 2-((4-(((7-chloro-8-fluoroimidazo[1,5-a]pyridin-1-yl)methyl)carbamoyl)-1H-1,2,3-triazol-1-yl)methyl)-6-cyclopropylimidazo[1,2-a]pyridine-8-carboxylate], with below 1 nM.
As for `O=C(NCc1ncn2ccc(Cl)c(F)c12)c1cn(Cc2cn3cc(C4CC4)cc(C(=O)O)c3n2)nn1` [Example I-166b, 2-((4-(((7-chloro-8-fluoroimidazo[1,5-a]pyridin-1-yl)methyl)carbamoyl)-1H-1,2,3-triazol-1-yl)methyl)-6-cyclopropylimidazo[1,2-a]pyridine-8-carboxylic acid], the EC50 was below 1 nM.
Then `O=C(NCc1ncn2ccc(Cl)c(F)c12)c1cn(Cc2cn3cc(C4CC4)cc(C4(F)COC4)c3n2)nn1` [Example I-167, N-((7-chloro-8-fluoroimidazo[1,5-a]pyridin-1-yl)methyl)-1-((6-cyclopropyl-8-(3-fluorooxetan-3-yl)imidazo[1,2-a]pyridin-2-yl)methyl)-1H-1,2,3-triazole-4-carboxamide], with below 1 nM; and `CCOC(=O)C(C)(C)Cc1cc(C2CC2)cn2cc(Cn3cc(C(=O)NCc4ncn5ccc(Cl)cc45)nn3)nc12` [Example I-168, ethyl 3-(2-((4-(((7-chloroimidazo[1,5-a]pyridin-1-yl)methyl)carbamoyl)-1H-1,2,3-triazol-1-yl)methyl)-6-cyclopropylimidazo[1,2-a]pyridin-8-yl)-2,2-dimethylpropanoate], with below 1 nM; and `O=C(NCc1ncn2ccc(Cl)c(F)c12)c1cn(Cc2cn3cc(C4CC4)cc(C4COC4)c3n2)nn1` [Example I-169, N-((7-chloro-8-fluoroimidazo[1,5-a]pyridin-1-yl)methyl)-1-((6-cyclopropyl-8-(oxetan-3-yl)imidazo[1,2-a]pyridin-2-yl)methyl)-1H-1,2,3-triazole-4-carboxamide], with below 1 nM.
Then `CC(C)(Cc1cc(C2CC2)cn2cc(Cn3cc(C(=O)NCc4ncn5ccc(Cl)cc45)nn3)nc12)C(=O)O` [Example I-170, 3-(2-((4-(((7-chloroimidazo[1,5-a]pyridin-1-yl)methyl)carbamoyl)-1H-1,2,3-triazol-1-yl)methyl)-6-cyclopropylimidazo[1,2-a]pyridin-8-yl)-2,2-dimethylpropanoic acid], with below 1 nM.
Then `O=C(NCc1ncn2ccc(Cl)c(F)c12)c1cn(Cc2cn3cc(C4CC4)cc(F)c3n2)nn1` [Example I-171, N-((7-chloro-8-fluoroimidazo[1,5-a]pyridin-1-yl)methyl)-1-((6-cyclopropyl-8-fluoroimidazo[1,2-a]pyridin-2-yl)methyl)-1H-1,2,3-triazole-4-carboxamide], with below 1 nM.
Turning to `O=C(NCc1ncn2ccc(Cl)c(F)c12)c1cn(Cc2cn3cc(C4CC4)cc(N4CCOCC4)c3n2)nn1` [Example I-173, N-((7-chloro-8-fluoroimidazo[1,5-a]pyridin-1-yl)methyl)-1-((6-cyclopropyl-8-morpholinoimidazo[1,2-a]pyridin-2-yl)methyl)-1H-1,2,3-triazole-4-carboxamide], the EC50 was below 1 nM.
Then `O=C(NCc1ncn2ccc(Cl)c(F)c12)c1cn(Cc2cn3cc(C4CC4)cc(-c4nn[nH]n4)c3n2)nn1` [Example I-174, N-((7-chloro-8-fluoroimidazo[1,5-a]pyridin-1-yl)methyl)-1-((6-cyclopropyl-8-(2H-tetrazol-5-yl)imidazo[1,2-a]pyridin-2-yl)methyl)-1H-1,2,3-triazole-4-carboxamide], with below 1 nM.
Then `O=C(NCc1ncn2ccc(Cl)c(F)c12)c1cn(Cc2cc3cc(C4CC4)ccn3n2)nn1` [Example I-175, N-((7-chloro-8-fluoroimidazo[1,5-a]pyridin-1-yl)methyl)-1-((5-cyclopropylpyrazolo[1,5-a]pyridin-2-yl)methyl)-1H-1,2,3-triazole-4-carboxamide], with below 1 nM; and `O=C(NCc1ncn2ccc(Cl)cc12)c1cc(Cc2cn3cc(C4CC4)ccc3n2)on1` [Example I-176, N-((7-chloroimidazo[1,5-a]pyridin-1-yl)methyl)-5-((6-cyclopropylimidazo[1,2-a]pyridin-2-yl)methyl)isoxazole-3-carboxamide], with 1 to 10 nM.
